Source: PubChem BioAssay (NCI)
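Exposure lasted 48 hours, with cells grown in 96-well plates and compounds tested at five concentrations. GI50 = concentration required for 50% inhibition of growth. At the TGI there is no net growth.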

Tests used:
Assay in all cases: inhibition of tumour cell growth, NCI panel, 48 h
DLD-1 colon = test system: DLD-1 colon
SK-OV-3 ovarian = test system: SK-OV-3 ovarian
SK-MEL-28 melanoma = test system: SK-MEL-28 melanoma
HOP-62 NSCLC = test system: HOP-62 NSCLC
HOP-18 NSCLC = test system: HOP-18 NSCLC
CAKI-1 renal = test system: CAKI-1 renal
SK-MEL-2 melanoma = test system: SK-MEL-2 melanoma
MOLT-4 leukemia = test system: MOLT-4 leukemia
XF 498 CNS = test system: XF 498 CNS
LXFL 529 NSCLC = test system: LXFL 529 NSCLC
SR leukemia = test system: SR leukemia
DU-145 prostate = test system: DU-145 prostate

Row | SMILES | TGI (DLD-1 colon) | TGI (SK-OV-3 ovarian) | TGI (SK-MEL-28 melanoma) | TGI (HOP-62 NSCLC) | TGI (HOP-18 NSCLC) | TGI (CAKI-1 renal) | TGI (SK-MEL-2 melanoma) | TGI (MOLT-4 leukemia) | TGI (XF 498 CNS) | TGI (LXFL 529 NSCLC) | TGI (SR leukemia) | GI50 (MOLT-4 leukemia) | TGI (DU-145 prostate) | GI50 (SR leukemia) | GI50 (SK-OV-3 ovarian) | GI50 (SK-MEL-28 melanoma) | GI50 (HOP-62 NSCLC) | GI50 (CAKI-1 renal) | GI50 (SK-MEL-2 melanoma) | GI50 (DU-145 prostate)
1 | O=NN(CCF)C(=O)NC1CC2CCC1C2 (stereo not given) | > 100 µM | > 100 µM | > 100 µM | 97.7 µM | > 100 µM | > 100 µM | > 100 µM | > 100 µM | – | – | – | – | – | – | – | – | – | – | – | –
2 | CN(C)CCNC(=O)c1cccc2cc3cc(O)ccc3nc12 | 4.88 µM | 4.27 µM | 4.65 µM | 2.94 µM | 3.83 µM | – | 3.81 µM | 3.17 µM | 2.51 µM | – | – | – | – | – | – | – | – | – | – | –
3 | CCOC(=O)C(C)Sc1nnc(COc2ccccc2OC)n1-c1ccccc1 (stereo not given) | > 100 µM | > 100 µM | > 100 µM | > 100 µM | > 100 µM | > 100 µM | > 100 µM | – | – | > 100 µM | – | – | – | – | – | – | – | – | – | –
4 | O=C1Nc2cc([N+](=O)[O-])c(Br)cc2C1=O | 46.5 µM | > 100 µM | 36.3 µM | 75.1 µM | – | 47.5 µM | 71.9 µM | 43 µM | 24.6 µM | – | 37.4 µM | – | – | – | – | – | – | – | – | –
5 | CCCc1c(C(=O)OCC)[nH]c(-c2ccc(-c3[nH]c(C(=O)OCC)c(CCC)c3C(=O)OCC)s2)c1C(=O)OCC | > 100 µM | 98.6 µM | > 100 µM | – | > 100 µM | > 100 µM | 57.2 µM | > 100 µM | > 100 µM | > 100 µM | > 100 µM | – | – | – | – | – | – | – | – | –
6 | Cc1cn(C2CC(CCCO)C(CO)O2)c(=O)[nH]c1=O (stereo not given) | > 100 µM | > 100 µM | > 100 µM | > 100 µM | – | > 100 µM | > 100 µM | > 100 µM | > 100 µM | > 100 µM | > 100 µM | > 100 µM | – | – | – | – | – | – | – | –
7 | CC1(C)C2CCC3(OCCO3)C1C(O)C2 (stereo not given) | > 100 µM | – | > 100 µM | > 100 µM | > 100 µM | > 100 µM | > 100 µM | > 100 µM | > 100 µM | > 100 µM | – | – | – | – | – | – | – | – | – | –
8 | CCSCN(C)c1nc(N(C)C)nc(N(C)C)n1 | > 100 µM | > 100 µM | > 100 µM | > 100 µM | > 100 µM | > 100 µM | > 100 µM | > 100 µM | – | > 100 µM | > 100 µM | – | – | – | – | – | – | – | – | –
9 | COc1cc(C2C(Cl)C(=O)N2NC(=O)c2ccc(NC(C)=O)cc2)ccc1O (stereo not given) | > 100 µM | > 100 µM | > 100 µM | > 100 µM | – | > 100 µM | > 100 µM | > 100 µM | > 100 µM | > 100 µM | – | – | – | – | – | – | – | – | – | –
10 | Cc1ccc(N(O)C(C)(C)C)cc1 | > 100 µM | > 100 µM | > 100 µM | > 100 µM | > 100 µM | > 100 µM | > 100 µM | > 100 µM | > 100 µM | – | – | – | – | – | – | – | – | – | – | –
11 | COC(=O)CC(C(C(=O)OCc1ccccc1)C(C)O)N1C(=O)OC(c2ccccc2)C1c1ccccc1 (stereo not given) | > 100 µM | – | > 100 µM | > 100 µM | – | – | > 100 µM | > 100 µM | > 100 µM | > 100 µM | > 100 µM | – | – | – | – | – | – | – | – | –
12 | O=c1c2ccccc2nc(-c2ccccc2)n1NC(=S)Nc1ccc(Cl)cc1 | > 100 µM | > 100 µM | 91.6 µM | > 100 µM | > 100 µM | > 100 µM | > 100 µM | > 100 µM | – | > 100 µM | > 100 µM | – | – | – | – | – | – | – | – | –
13 | COC(=O)CCc1c(Cc2ccc[nH]2)[nH]c(C(=O)OCc2ccccc2)c1C | – | > 100 µM | 39.7 µM | 39.9 µM | – | 64.7 µM | 33.7 µM | 52.7 µM | – | – | 66.5 µM | – | > 100 µM | – | – | – | – | – | – | –
14 | CO[C@H]1O[C@@H]2CO[C@@H](c3ccccc3)O[C@H]2[C@@H]2C/C=C\CCC[C@@]12O | – | 99.7 µM | 89.1 µM | 35.5 µM | – | > 100 µM | 34.2 µM | 42.2 µM | – | – | 49.4 µM | – | 51.8 µM | – | – | – | – | – | – | –
15 | CCCC1C(=O)Nc2cccc3ncn(c23)C1=O (stereo not given) | – | > 100 µM | > 100 µM | > 100 µM | – | > 100 µM | > 100 µM | > 100 µM | – | – | > 100 µM | – | > 100 µM | – | – | – | – | – | – | –
16 | O=C(O)CC[P+](c1ccccc1)(c1ccccc1)c1ccccc1 | – | > 100 µM | > 100 µM | > 100 µM | – | > 100 µM | 81.8 µM | > 100 µM | – | – | > 100 µM | – | > 100 µM | – | – | – | – | – | – | –
17 | COC(=O)[C@@](C)(COC(=O)C(C)(C)C)NC(=O)OC(C)(C)C | – | > 100 µM | > 100 µM | > 100 µM | – | > 100 µM | > 100 µM | > 100 µM | – | – | > 100 µM | – | > 100 µM | – | – | – | – | – | – | –
18 | COc1ccc(/C=C/C(=O)c2ccc(-n3cc(CN4CCN(c5cc6c(cc5F)c(=O)c(C(=O)O)cn6C5CC5)CC4)nn3)cc2)cc1OC | – | > 100 µM | 10.4 µM | > 100 µM | – | 19 µM | > 100 µM | > 100 µM | – | – | > 100 µM | 3.32 µM | 34.9 µM | 0.434 µM | 7.09 µM | 2.77 µM | 2.49 µM | 5.1 µM | 21.1 µM | 3.67 µM
19 | O=[N+]([O-])c1ccc2oc(=Nc3ccccc3)c(Nc3ccccc3)nc2c1 | – | > 100 µM | > 100 µM | > 100 µM | – | > 100 µM | > 100 µM | > 100 µM | – | – | > 100 µM | – | > 100 µM | – | – | – | – | – | – | –
20 | Cc1ccc(S(=O)(=O)[C@@H](Cl)[C@H]2N=C(Cl)NN=C2c2ccccc2)cc1 | – | > 100 µM | 36.1 µM | 42.7 µM | – | > 100 µM | 34.8 µM | 83.1 µM | – | – | > 100 µM | – | 70.9 µM | – | – | – | – | – | – | –
21 | COc1ccc2nc3c(c(NCCCN(C)C)c2c1)CCCC3 | 28.4 µM | 58.4 µM | 30.9 µM | 30.9 µM | – | 27.9 µM | 37.1 µM | 14.2 µM | 20.4 µM | 28.7 µM | 5.77 µM | – | – | – | – | – | – | – | – | –
22 | CC(=O)NNc1nc(C)c(C(=O)NNC(=O)C(=O)Nc2cccc(C(C)=O)c2)s1 | 98.9 µM | 32.5 µM | 49 µM | 68.2 µM | – | 31.6 µM | > 100 µM | > 100 µM | 30.6 µM | – | 45.8 µM | – | – | – | – | – | – | – | – | –
23 | Cc1ccc(Sc2ccccc2[N+](=O)[O-])cc1 | > 100 µM | > 100 µM | 60 µM | > 100 µM | > 100 µM | – | > 100 µM | 81.4 µM | – | > 100 µM | > 100 µM | – | – | – | – | – | – | – | – | –
24 | CCC(COC(=O)CC[C@@H](NC(=O)C(C)NC(=O)C(C)OC1C(O)C(CO)OC(OCc2ccccc2)C1NC(C)=O)C(N)=O)NC1c2ccccc2Nc2cccc([N+](=O)[O-])c21 (stereo not given in full) | > 100 µM | > 100 µM | > 100 µM | > 100 µM | > 100 µM | > 100 µM | > 100 µM | > 100 µM | > 100 µM | > 100 µM | > 100 µM | – | – | – | – | – | – | – | – | –
25 | CCOC(=O)c1cc2c(OCc3ccccc3)c(OC)cc3c2c(n1)N(c1ccc(OC)cc1)C(C)C3 (stereo not given) | > 50 µM | > 50 µM | > 50 µM | > 50 µM | > 50 µM | > 50 µM | > 50 µM | > 50 µM | > 50 µM | > 50 µM | > 50 µM | – | – | – | – | – | – | – | – | –
26 | COc1ccc2c(c1)OCCc1cn[nH]c1-2 | > 100 µM | > 100 µM | > 100 µM | > 100 µM | > 100 µM | – | > 100 µM | 70.4 µM | 73.6 µM | – | – | – | – | – | – | – | – | – | – | –
27 | CCOC(=O)C(NC(=O)CC)(Nc1ccc(S(=O)(=O)Nc2onc(C)c2C)cc1)C(F)(F)F (stereo not given) | – | > 100 µM | > 100 µM | > 100 µM | – | > 100 µM | > 100 µM | > 100 µM | – | – | > 100 µM | – | > 100 µM | – | – | – | – | – | – | –
28 | O=C(Sc1c(-c2ccccc2)c(=O)n(-c2ccccc2)c(=S)n1-c1ccccc1)c1cccs1 | – | > 100 µM | > 100 µM | > 100 µM | – | > 100 µM | > 100 µM | 86 µM | – | – | > 100 µM | – | > 100 µM | – | – | – | – | – | – | –
